{"source": "paper PMC9738620", "about": "“Computer- and NMR-Aided Design of Small-Molecule Inhibitors of the Hub1 Protein” (Molecules, 2022)", "molecules": {"B1": {"name": "Hub1 1-73 (protein)", "chain": "MIEVVCNDRLGKKVRVKCNTDDTIGDLKKLIAAQTGTRWNKIVLKKWYTIFKDHVSLGDYEIHDGMNLELYYQ"}}, "key": {"Hub1 [1]": {"target": "T1, Hub1 (Saccharomyces cerevisiae, UniProt Q6Q546)", "T1 sequence (Q6Q546 whole entry)": "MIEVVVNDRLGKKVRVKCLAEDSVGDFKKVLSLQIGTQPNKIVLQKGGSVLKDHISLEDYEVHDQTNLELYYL", "description": "The NMR measurements were carried out at 300 K on an ultrashielded 600 MHz Bruker AVANCE 3 (Bruker Corporation, Billerica, MA, USA) spectrometer equipped with a liquid nitrogen cryogenic system. Uniform ^15N isotope labeling was achieved by the expression of the protein in the M9 minimal media containing ^15NH4Cl as the sole nitrogen source. The NMR buffer for ^15N-labeled protein was PBS pH 7.4 with 5 mM DTT (dithiothreitol). To provide a lock signal, 10% (v/v) of D2O was added to the samples. Water suppression was carried out using the WATERGATE sequence. Stock solutions of the inhibitors used for titration were prepared in DMSO-d6. The binding of small molecule fragments towards Hub1 was measured with the 2D SOFAST-HMQC spectra of the ^15N-labeled Hub1 recombinant protein in 3-mm NMR capillaries. For the preliminary screening, the mixture of three compounds was added in a molar ratio compound to protein 1:10. Then the ^1H and SOFAST-HMQC spectrum was recorded and compared with the reference spectrum of the protein Hub1 titrated with a suitable amount of DMSO. When any activity occurred, all compounds which were in the mixture were tested one by one. The individual spectra were recorded in 10-fold excess of the inhibitor either by ^1H NMR or SOFAST-HMQC. […] The spectra were processed with TopSpin 3.2 software (Bruker Corporation, Billerica, MA, USA)."}, "Hub1 [2]": {"target": "T1, Hub1", "test": "biochemical", "description": "Hub1 buffered in 20 mM HEPES, pH 7.5, 100 mM NaCl, 0.05% Tween-20 was labeled using His-Tag Labelling Kit RED-tris-NTA 2nd generation (MO-L018, NanoTemper, Munich, Germany), according to the manufacturer’s protocol. […] The final concentration of Hub1 was 50 nM. All measurements were calculated on a Monolith NT.115 instrument (NanoTemper, Munich, Germany) using the standard capillaries at the excitation power of 60% and the medium MST power in duplicates. The results were analyzed in GraphPad Prism software (GraphPad Prism version 8.0.0 for Windows, GraphPad Software, San Diego, CA, USA)."}, "Snu66 peptide-14": {"target": "T2, Snu66 peptide-14 (Saccharomyces cerevisiae)", "T2 chain": "TNEIREKLGM", "test": "MST"}}, "note": "Ends that are not written are not given here.", "data": [{"molecule": "IREKLGM [Peptide-11]", "values": [{"measurement": "changes in chemical shifts (in words)", "setting": "Hub1 [1]; 1H NMR, Hub1:peptide ratio 1:1 to 1:10, 300 K", "value": "changes in chemical shifts in the aliphatic (δ = 0.04 ppm) and aromatic (δ = 6.5 ppm) regions"}, {"measurement": "chemical shift changes, aliphatic region (δ)", "setting": "Hub1 [1]; 1H NMR, Hub1:peptide ratio 1:1 to 1:10, 300 K, aliphatic region", "value": 0.04, "unit": "ppm"}, {"measurement": "buffer pH after titration", "setting": "Hub1 [1]; after titration of Hub1 with peptide", "value": 6.7}, {"measurement": "binding to Hub1 by MST (in words)", "setting": "Hub1 [2]; MST, labeled Hub1 50 nM, peptide […] to 250 µM, pH 7.5, duplicates", "value": "no significant binding events"}]}, {"molecule": "TNEIREKLGM [Peptide-14]", "values": [{"measurement": "Kd", "setting": "Hub1 [2]", "value": "14 ± 8.3", "unit": "µM"}]}, {"molecule": "B1", "values": [{"measurement": "Kd", "setting": "Snu66 peptide-14", "value": 14, "unit": "µM"}]}]}
